Measured values from ChEMBL document CHEMBL3046159, “Synthesis of some 3,4-disubstituted-6,7-dihydro-imidazo[2,1-b][1,3]thiazole and 3,4-disubstituted-7,8-dihydro-6H-imidazo[2,1-b][1,3]thiazine derivatives and evaluation of their cytotoxicities against F2408 and 5RP7 cells” (Med Chem Res, 2008).
Converted amounts (≈) assume the structure as drawn. The source made the active and inactive calls. The calls are words filed in the database; no cut-off is given here.

Columns and labels:
[1] = Cytotoxicity against Rattus norvegicus (rat) F2408 cells after 48 hr by MTT assay; assay type: cell-based; conditions: f2408, 48 h
[2] = system: 5RP7; test: Cytotoxicity against Rattus norvegicus (rat) 5RP7 cells at high concentration after 48 hr by MTT assay; assay type: functional, cell-based
[3] = Cytotoxicity against Rattus norvegicus (rat) 5RP7 cells after 24 hr by MTT assay; assay type: functional, cell-based; conditions: 5RP7, 24 h
[4] = Cytotoxicity against Rattus norvegicus (rat) F2408 cells after 24 hr by MTT assay; assay type: cell-based; conditions: F2408, 24 h
[5] = Cytotoxicity against Rattus norvegicus (rat) F2408 cells at low concentration after 24 hr by MTT assay; assay type: cell-based; conditions: f2408, 24 h
[6] = system: 5RP7; test: Cytotoxicity against Rattus norvegicus (rat) 5RP7 cells at low concentration after 24 by MTT assay; assay type: functional, cell-based
[7] = Cytotoxicity against Rattus norvegicus (rat) F2408 cells assessed as cell viability at 0.0256 to 0.064 ug/ml after 24 hr by MTT assay; assay type: cell-based; conditions: read-out: Activity
[8] = Cytotoxicity against Rattus norvegicus (rat) F2408 cells assessed as cell viability at 0.0128 ug/ml after 24 hr by MTT assay; assay type: cell-based; conditions: read-out: Activity
[9] = Cytotoxicity against Rattus norvegicus (rat) 5RP7 cells assessed as cell viability at 0.0128 ug/ml after 24 hr by MTT assay; assay type: functional; conditions: 5RP7, 24 h, read-out: Activity
[10] = Cytotoxicity against Rattus norvegicus (rat) 5RP7 cells at 0.064 ug/ml by MTT assay; assay type: functional
[11] = Cytotoxicity against Rattus norvegicus (rat) 5RP7 cells at 0.0256 ug/ml by MTT assay; assay type: functional
[12] = Cytotoxicity against Rattus norvegicus (rat) F2408 cells at 0.064 ug/ml by MTT assay; assay type: cell-based
[13] = Cytotoxicity against Rattus norvegicus (rat) 5RP7 cells at 0.0128 ug/ml by MTT assay; assay type: functional
[14] = Cytotoxicity against Rattus norvegicus (rat) F2408 cells at 0.0128 ug/ml by MTT assay; assay type: cell-based
[15] = Cytotoxicity against Rattus norvegicus (rat) F2408 cells at 0.0256 ug/ml by MTT assay; assay type: cell-based

Structure (SMILES)	IC50 [3] [µg/mL]	IC50 [4] [µg/mL]	Activity [5]	Activity [6]	further results
c1ccc(-c2nc3n(c2-c2ccccc2)CCS3)cc1	15 (≈ 53.9 µM)	9.5 (≈ 34.1 µM)			Activity [1]: Toxic; Activity [2]: Active
COc1ccc(-c2nc3n(c2-c2ccc(OC)cc2)CCS3)cc1	22 (≈ 65 µM)	29 (≈ 85.7 µM)	Non-toxic	Active	
Cc1ccc(-c2nc3n(c2-c2ccc(C)cc2)CCCS3)cc1	4.6 (≈ 14.4 µM)	12 (≈ 37.4 µM)			viability at 24 h [7]: 100%; viability at 24 h, 0.0128 ug/ml [8]: 100%; viability at 0.0128 µg/mL [9]: 87%
c1ccc(-c2nc3n(c2-c2ccccc2)CCCS3)cc1	2.9 (≈ 9.92 µM)	10 (≈ 34.2 µM)			Activity [10]: 21%; Activity [11]: 28%; Activity [12]: 18%; Activity [13]: 30%; Activity [14]: 20%; Activity [15]: 21%
Cc1ccc(-c2nc3n(c2-c2ccc(C)cc2)CCS3)cc1	18 (≈ 58.7 µM)	15 (≈ 49 µM)	Non-toxic	Active	
